Data on ten molecules can be found in PMC10052977, “α,ω-Diacyl-Substituted Analogues of Natural and Unnatural Polyamines: Identification of Potent Bactericides That Selectively Target Bacterial Membranes” (International Journal of Molecular Sciences, 2023).

A short description of data set [1]: Cytotoxicity assay (resazurin). The format is cell-based, human. The conditions noted are these: human; HEK293 cells; mean (n = 2); highest dose tested 32 μg/mL; read-out: Cytotoxicity (concentration of compound at 50% cytotoxicity, IC50). Background: Alamar Blue is a resazurin reagent that responds to reducing activity.
Data set [2] concerns Cryptococcus neoformans ATCC208821. Put plainly: Antifungal MIC, CO-ADD. The format is cell-based. How it is done:
(§1) For the antifungal assay, fungi strains were cultured for 3 days on YPD agar at 30 °C. A yeast suspension of 1 × 10^6 to 5 × 10^6 CFU/mL was prepared from five colonies. These stock suspensions were diluted with yeast nitrogen base (YNB) (Becton Dickinson, 233520) broth to a final concentration of 2.5 × 10^3 CFU/mL. […] Plates were covered and incubated at 35 °C for 36 h without shaking. C. albicans MICs were determined by measuring the absorbance at OD530. […] Fluconazole was used as a positive fungal inhibitor standard for C. albicans and C. neoformans. […] Quality control (QC) of the assays was determined by antimicrobial controls and Z’-factor (using positive and negative controls).

Data set [3] deals with Candida albicans ATCC90028. Briefly: Antifungal MIC, CO-ADD. Format: cell-based. The conditions noted are these: mean (n = 2). How it is done: as §1
The test system of data set [4] is Staphylococcus aureus ATCC 25923 or ATCC 29213. Briefly: MIC, broth dilution (CA-SFM). Format: cell-based. The settings on record: Staphylococcus aureus ATCC 25923 or ATCC 29213; mean (n = 3); read-out: MIC S. a.
The test system of a further data set is MRSA ATCC 43300. Put plainly: MIC, CO-ADD broth microdilution. The conditions noted are these: for MIC: Staphylococcus aureus, MRSA ATCC 43300, mean (n = 2), read-out: MIC MRSA. Format: cell-based, Staphylococcus aureus. For orientation: In broth dilution the organism is exposed to a series of concentrations in liquid medium.
Data set [5] deals with Pseudomonas aeruginosa PAO1 or ATCC 27853. Briefly: MIC, broth dilution (CA-SFM). Format: cell-based. The conditions noted are these: mean (n = 3).
For data set [6], the system named is Escherichia coli ATCC 25922. Briefly: MIC, CO-ADD broth microdilution. The format is cell-based. The conditions noted are these: ATCC25922, mean (n = 2).
Data set [7] has as its system Klebsiella pneumoniae ATCC700603. Briefly: MIC, CO-ADD broth microdilution. The format is cell-based. The settings on record: mean (n = 2).
For data set [8], the system named is Acinetobacter baumannii ATCC19606. Briefly: MIC, CO-ADD broth microdilution. The settings on record: mean (n = 2). The format is cell-based.
In the next data set the test system is human red blood cells. Put plainly: Hemolytic assay. Format: cell-based. The settings on record: mean (n = 2). How it is done: Human whole blood was washed three times with 3 volumes of 0.9% NaCl and then resuspended in same to a concentration of 0.5 × 10^8 cells/mL, as determined by manual cell count in a Neubauer hemocytometer. The washed cells were then added to the 384-well compound-containing plates for a final volume of 50 μL. After a 10 min shake on a plate shaker, the plates were then incubated for 1 h at 37 °C. After incubation, the plates were centrifuged at 1000× g for 10 min to pellet cells and debris; 25 μL of the supernatant was then transferred to a polystyrene 384-well assay plate. Hemolysis was determined by measuring the supernatant absorbance at […] (OD405). The absorbance was measured using a Tecan M1000 Pro monochromator plate reader. HC10 and HC50 (concentration at 10% and 50% hemolysis, respectively) were calculated by curve fitting the inhibition values vs. log (concentration) using a sigmoidal dose–response function with variable fitting values for top, bottom and slope.

Where [9] appears, read: ATCC208821, Cryptococcus neoformans ATCC208821, mean (n = 2).

Values after ≈ are worked out from the molar mass of the structure shown.

The MIC is the smallest concentration in the dilution series that meets the test's criterion for growth inhibition. Turning to `O=C(CC(c1ccccc1)(c1ccccc1)c1ccccc1)NCCCNCCCCCCCNCCCNC(=O)CC(c1ccccc1)(c1ccccc1)c1ccccc1.O=C(O)C(F)(F)F.O=C(O)C(F)(F)F` [Compound 18c, N^1,N^7-Bis(3-(3,3,3-triphenylpropanamido)propyl)heptane-1,7-diaminium 2,2,2-trifluoroacetate], the IC50 at 20 h in data set [1] turned out to be 13.2 µM. Besides, the MIC in data set [2] (setting [9]) was 30.7 µM; in data set [3], 3.84 µM; in [4], 1.56 µM; in the data set with MRSA ATCC 43300 it was less than 0.24 µM; in data set [5], 100 µM; in [6] it was 3.84 µM. The MIC is 30.7 µM in [7] and 1.92 µM in data set [8]. In the data set with human red blood cells, the “Hemolysis (HC10, concentration at 10% hemolytic activity)” value is 3.12 µM.
In the case of `O=C(CCC(=O)NCCC(c1ccccc1)c1ccccc1)NCCCNCCCCCCCCCCCCNCCCNC(=O)CCC(=O)NCCC(c1ccccc1)c1ccccc1` [Compound 16f, N^1,N^12-Bis(3-(4-((3,3-diphenylpropyl)amino)-4-oxobutanamido)propyl)dodecane-1,12-diaminium 2,2,2-trifluroracetate], in [1], the IC50 at 20 h is greater than 28.3 µM. Also, the MIC was greater than 28.3 µM in data set [2] (setting [9]); greater than 28.3 µM in [3]; 3.13 µM (≈ 2.82 µg/mL) in data set [4]; no more than 0.22 µM in the data set with MRSA ATCC 43300; 300 µM (≈ 270 µg/mL) in [5]; greater than 28.3 µM in data set [6]. Also, the MIC in data set [7] and in data set [8] was greater than 28.3 µM each time. Also, the “Hemolysis (HC10, concentration at 10% hemolytic activity)” value with human red blood cells was 3.17 µM.
As to `O=C(CC(c1ccccc1)(c1ccccc1)c1ccccc1)NCCCNCCCCCCCCNCCCNC(=O)CC(c1ccccc1)(c1ccccc1)c1ccccc1.O=C(O)C(F)(F)F.O=C(O)C(F)(F)F` [Compound 18d, N^1,N^8-Bis(3-(3,3,3-triphenylpropanamido)propyl)octane-1,8-diaminium 2,2,2-trifluoroacetate], the IC50 at 20 h in data set [1] turned out to be 9.7 µM. For the same molecule, the MIC in data set [2] (setting [9]) is 7.6 µM; in data set [3], less than 0.24 µM; in data set [4] it was 3.12 µM; in the data set with MRSA ATCC 43300, less than 0.24 µM; in [5], 200 µM; in [6], 7.58 µM. Moreover, the MIC in [7] was greater than 30.3 µM; in data set [8], 7.6 µM. Besides, the “Hemolysis (HC10, concentration at 10% hemolytic activity)” value in the data set with human red blood cells amounted to 3.17 µM.
In the case of `O=C(CC(c1ccccc1)(c1ccccc1)c1ccccc1)NCCCNCCCCCCCCCCNCCCNC(=O)CC(c1ccccc1)(c1ccccc1)c1ccccc1.O=C(O)C(F)(F)F.O=C(O)C(F)(F)F` [Compound 18e, N^1,N^10-Bis(3-(3,3,3-triphenylpropanamido)propyl)decane-1,10-diaminium 2,2,2-trifluoroacetate], the IC50 at 20 h in data set [1] was determined as 7.23 µM. Also, the MIC was less than 0.23 µM in data set [2] (setting [9]); less than 0.23 µM in [3]; 1.56 µM in data set [4]; less than 0.23 µM in the data set on MRSA ATCC 43300; 200 µM in data set [5]; greater than 29.5 µM in data set [6]. Besides, the MIC in data set [7] was greater than 29.5 µM; in data set [8] it was less than 0.23 µM. The “Hemolysis (HC10, concentration at 10% hemolytic activity)” value in the data set on human red blood cells was no more than 0.231 µM.
In the case of `O=C(CCC(=O)NCCCc1ccccc1)NCCCNCCCCCCCCNCCCNC(=O)CCC(=O)NCCCc1ccccc1.O=C(O)C(F)(F)F.O=C(O)C(F)(F)F` [Compound 14d, N^1,N^8-Bis(3-(4-oxo-4-((3-phenylpropyl)amino)butanamido)propyl)octane-1,8-diaminium 2,2,2-trifluoroacetate], the IC50 at 20 h in data set [1] is greater than 34.7 µM. Further, the MIC in data set [2] (setting [9]) was greater than 34.7 µM; in [3] it was greater than 34.7 µM; in data set [4], greater than 100 µM; in the data set with MRSA ATCC 43300 it was greater than 34.7 µM; in data set [5], greater than 100 µM; in [6] it was greater than 34.7 µM. The MIC in data set [7] and in [8] was greater than 34.7 µM each time. In addition, the “Hemolysis (HC10, concentration at 10% hemolytic activity)” value in the data set on human red blood cells is greater than 34.7 µM.
Take `O=C(CCc1ccccc1)NCCCNCCCCCCCNCCCNC(=O)CCc1ccccc1.O=C(O)C(F)(F)F.O=C(O)C(F)(F)F` [Compound 13c, N^1,N^7-Bis(3-(3-phenylpropanamido)propyl)heptane-1,7-diaminium 2,2,2-trifluoroacetate]: in data set [1], the IC50 at 20 h was greater than 43.4 µM. The MIC was greater than 43.4 µM in [2] (setting [9]); greater than 43.4 µM in data set [3]; greater than 271 µM in [4]; greater than 43.4 µM with MRSA ATCC 43300; greater than 271 µM in data set [5]; greater than 43.4 µM in data set [6]. In addition, the MIC in [7] and in data set [8] was greater than 43.4 µM each time. The “Hemolysis (HC10, concentration at 10% hemolytic activity)” value with human red blood cells was greater than 43.4 µM.
Turning to `O=C(NCCCNCCCCCCCCCCCCNCCCNC(=O)C(c1ccccc1)(c1ccccc1)c1ccccc1)C(c1ccccc1)(c1ccccc1)c1ccccc1.O=C(O)C(F)(F)F.O=C(O)C(F)(F)F` [Compound 17f, N^1,N^12-Bis(3-(2,2,2-triphenylacetamido)propyl)dodecane-1,12-diaminium 2,2,2-trifluoroacetate], in [1], the IC50 at 20 h is no more than 0.231 µM. In addition, the MIC in data set [2] (setting [9]) was less than 0.23 µM; in [3] it was less than 0.23 µM; in data set [4] it was 6.25 µM; in the data set with MRSA ATCC 43300, less than 0.23 µM; in [5] it was 300 µM; in data set [6], greater than 29.5 µM. Also, the MIC in data set [7] and in [8] was greater than 29.5 µM each time. Moreover, the “Hemolysis (HC10, concentration at 10% hemolytic activity)” value in the data set with human red blood cells is no more than 0.231 µM.
`O=C(CCc1ccccc1)NCCCNCCCCCCCCCCCCNCCCNC(=O)CCc1ccccc1.O=C(O)C(F)(F)F.O=C(O)C(F)(F)F` [Compound 13f, N^1,N^12-Bis(3-(3-phenylpropanamido)propyl)dodecane-1,12-diaminium 2,2,2-trifluoroacetate]: the IC50 at 20 h in [1] is greater than 39.7 µM. The MIC in [2] (setting [9]) was greater than 39.7 µM; in [3], greater than 39.7 µM; in [4], 50 µM; with MRSA ATCC 43300, 19.8 µM; in data set [5], 300 µM; in data set [6], greater than 39.7 µM. Also, the MIC in [7] and in [8] was greater than 39.7 µM in each case. Further, the “activity towards MRSA” value in the data set on MRSA ATCC 43300 (MRSA) was “weak”. In the data set on human red blood cells, the “Hemolysis (HC10, concentration at 10% hemolytic activity)” value is greater than 39.7 µM.
In the case of `O=C(CC(c1ccccc1)(c1ccccc1)c1ccccc1)NCCCNCCCCCCCCCCCCNCCCNC(=O)CC(c1ccccc1)(c1ccccc1)c1ccccc1.O=C(O)C(F)(F)F.O=C(O)C(F)(F)F` [Compound 18f, N^1,N^12-Bis(3-(3,3,3-triphenylpropanamido)propyl)dodecane-1,12-diaminium 2,2,2-trifluoroacetate], the IC50 at 20 h in data set [1] is 0.409 µM. In addition, the MIC was less than 0.23 µM in data set [2] (ATCC208821, 36 h, Cryptococcus neoformans ATCC208821, mean (n = 2)); less than 0.23 µM in data set [3] (36 h); 25 µM in data set [4]; less than 0.22 µM in the data set with MRSA ATCC 43300; 300 µM in data set [5]; greater than 28.8 µM in data set [6]. For the same molecule, the MIC in data set [7] and in [8] was greater than 28.8 µM each time. Further, in the data set on human red blood cells, the “Hemolysis (HC10, concentration at 10% hemolytic activity)” value is no more than 0.225 µM.
Turning to `O=C(CCC(=O)NCCCc1ccccc1)NCCCNCCCCNCCCNC(=O)CCC(=O)NCCCc1ccccc1.O=C(O)C(F)(F)F.O=C(O)C(F)(F)F` [Compound 14a, N^1,N^4-Bis(3-(4-oxo-4-((3-phenylpropyl)amino)butanamido)propyl)butane-1,4-diaminium 2,2,2-trifluoroacetate], in data set [1], the IC50 at 20 h was greater than 37 µM. The MIC was greater than 37 µM in [2] (setting [9]); greater than 37 µM in data set [3]; 100 µM in data set [4]; greater than 37 µM in the data set on MRSA ATCC 43300; greater than 200 µM in data set [5]; greater than 37 µM in data set [6]. In addition, the MIC in data set [7] and in data set [8] was greater than 37 µM throughout. In addition, the “Hemolysis (HC10, concentration at 10% hemolytic activity)” value in the data set on human red blood cells was greater than 37 µM.
